The source of these data is PMC9405135, “Tuning the Biological Activity of Camphorimine Complexes through Metal Selection” (Antibiotics, 2022).

The subject of data set [1] is OVCAR3 cells. Description: MTT cytotoxicity, OVCAR3 ovarian cancer cells. As to conditions: for IC50: read-out: IC50 OVCAR3; for SI = selectivity index = IC50(HDF)/IC50(OVCAR3): HDF versus OVCAR3, 24 h.
Data set [2] can be described thus: Reduction potential by cyclic voltammetry. The format is physicochemical. Further details: E1/2red (reduction potential, footnote d): reference not given here. As to conditions: Bu4NBF4/CH3CN electrolyte, ±10 mV; for Epred (reduction potential): versus SCE; for E1/2red (reduction potential, footnote d): half-wave potential, footnote d prints [28].
The next data set has as its system V79 fibroblasts. Description: MTT cytotoxicity, V79 normal fibroblasts. As to conditions: read-out: IC50 V79, 24 h incubation.
The next data set deals with A2780 cells. Description: MTT cytotoxicity, A2780 ovarian cancer cells. As to conditions: read-out: IC50 A2780, 24 h incubation.
The subject of the next data set is HDF fibroblasts. Description: MTT cytotoxicity, HDF normal fibroblasts. As to conditions: read-out: IC50 HDF, 24 h incubation.
In data set [3] the test system is ΦX174 supercoiled DNA. Further details: method as in PMID 31671298. As to conditions: previously shown; cited from earlier work.
For data set [4], the system named is OVCAR3 cells. Description: Intracellular ROS detection by H2DCF-DA. The format is cell-based, human. As to conditions: 1-4 at 10-100 µM, 5-9 at 0.1-50 µM, 1 h. As to the method:
The molecular probe dichlorodihydrofluorescein diacetate (H2DCF-DA) was used to assess the levels of ROS, e.g., hydrogen peroxide, hydroxyl radicals, and peroxynitrite, generated in response to the effect of the complexes. This compound suffers oxidation and produces a fluorescent compound (DCF) in the presence of ROS [31]. The induction of intracellular ROS by the compounds (metal precursors and copper, silver, and gold complexes) was analyzed at λexc. = 492 nm 517 nm emission using a Varioskan LUX scanning multimode reader (Thermo Fisher Scientific).
Intracellular ROS levels, mainly H2O2, were measured using dihydro-2′7′dichlorofluorescein diacetate (H2DCF-DA). This cell-permeable molecular probe is de-esterified within the cell and turns to highly fluorescent 2′,7′-dichlorofluorescin (DCF) upon oxidation with ROS. For the assays, OVCAR3 cells (2 × 10^4 cells /well) were seeded in 96-well plates and left to adhere overnight. The medium was then replaced with a solution of 10 μM H2DCF-DA in colorless DMEM (FluoroBrite™ DMEM, Gibco®, Waltham, MA, USA) and cells were incubated at 37 °C for 30 min. […] DCF fluorescence was measured using a Varioskan Lux multimode microplate reader (ThermoFisher Scientific, Waltham, MA, USA) at 492 nm excitation and 517 nm emission. Results of fluorescence were expressed as the fold change in fluorescence levels compared with controls.

Data set [5] relates to ΦX174 supercoiled DNA. Description: Complex-DNA interaction, agarose gel electrophoretic mobility. The format is binding. As to conditions: 0.5-15 µM complex, 24 h at 37 °C. As to the method: Therefore, we focused our studies mostly on the silver (5 and 7) and gold complexes (8 and 9) having the monocamphor ligands ^1A and ^2A, respectively. Complex 1 was also included for comparison. We evaluated the complexes’ ability to interact with DNA, by visualizing in vitro conformational changes in ΦX174 supercoiled DNA using agarose gel electrophoresis assays.
The DNA binding activity of the metal complexes was assessed through their ability to alter the electrophoretic mobilities of the covalently closed circular (ccc) and open circular (oc) forms of ΦX174 supercoiled DNA as previously described. Briefly, a mixture containing 200 ng of ϕX174 DNA (Promega, Madison, WI, USA) and different concentrations of the metal complexes was prepared. After incubation for 24 h at 37 °C in the dark, the samples were run in a 0.8% agarose gel in TAE buffer for 3 h at 90 V. The gel obtained was then stained using a 3× GelRed® (Biotium, Fremont, CA, USA) solution in H2O and imaged in an AlphaImagerEP (Alpha Innotech, San Leandro, CA, USA).

Data set [6] in a line: Complex stability in cellular medium by UV/Vis spectroscopy. As to conditions: DMSO, DMEM with 1% DMSO, DMEM with 1% DMSO + 10% FBS; 48 h. The format is physicochemical. As to the method: The stability in cellular medium of the complexes was evaluated for 48 h, using UV/Vis spectroscopy. The absorption spectrum was recorded for each complex dissolved in (a) 100% DMSO, (b) colorless DMEM with 1% DMSO, and (c) colorless DMEM with 1% DMSO + 10% FBS [30]. […] As low concentrations were used in the biological studies, we expect that both the stability and the solubility were not impaired.

Data set [7] has as its system OVCAR3 cells. Description: Lipid peroxidation (MDA, TBARS) assay. It counts as cell-based, human. As to conditions: OVCAR3 cells treated 6 h; 1 at 100 μM, 5 at 50 μM, 9 at 20 μM; mean ± SD. How it is done: Measurement of MDA relies on the detection of thiobarbituric acid (TBA)-reactive compounds generated from the decomposition of lipid peroxidation products. This reaction, which takes place under acidic conditions at 95 °C, results in the formation of an MDA–TBA adduct that can be quantified by its absorbance at 532 nm. […] Additionally, the MDA levels induced by the complexes correlated with the levels of ROS, pointing the involvement of ROS production in the mechanism of action of complexes under study and, consequently, the peroxidation of the membrane lipids, as supported by the correlation between the production of ROS and the levels of lipid peroxides, particularly for complexes 5 and 9.
The malondialdehyde (MDA) content in lipid extracts of OVCAR3 cells was measured using a colorimetric kit (BioVision, Milpitas, CA, USA), a method that relies on the reaction with thiobarbituric acid (TBARS assay). Briefly, OVCAR3 cells (5 × 10^5 cells/2 mL medium) were seeded in six-well plates and left to adhere for 24 h. […] The resulting cell pellet was treated following the kit recommended protocol. […] Then, 200 μL aliquots were then taken and transferred to a 96-well plate for MDA quantification at 532 nm. […]

Data set [8] relates to OVCAR3 cells. Description: Superoxide generation (NBT assay). The format is cell-based, human. As to conditions: 1 at 50 and 100 µM, 5 at 20 and 50 µM, 9 at 10 and 20 µM. How it is done:
The ROS species superoxide (O2^•−) can be detected with NBT, a cell-permeant dye that can cross the cell membrane and be reduced by intracellular free radicals (superoxide anions) to form formazan particles, which can be detected as blue precipitates in the cells.
The nitro blue tetrazolium (NBT) assay was carried out adapting a previously described method. This assay was used to determine the ability of cells to produce superoxide anion upon treatment with the compounds. During the treatment, NBT is reduced by superoxide anion, resulting in dark-blue formazan particles. […] Then, the medium was discarded, and the blue formazan particles were dissolved in 200 μL of 90% DMSO (90% DMSO:10% NaOH 0.1 N with 0.1% SDS). The resulting NBT formazan was measured at 560 nm using a plate spectrophotometer.

Data set [9] relates to caspase-3/7 in OVCAR3 cells. Description: Caspase-3/7 activation (Caspase-Glo 3/7 assay). As to conditions: OVCAR3, 24 h, concentrations below IC50. It counts as cell-based, human. As to the method: Caspases are a family of cysteine proteases playing central roles in the regulation of cellular processes such as programmed cell death. Among them, caspase-3 and -7 are considered executioners of the apoptosis pathways. We investigated the possible activation of apoptotic events in OVCAR3 cells treated by camphorimine complexes 1, 5, and 9.
The activities of caspase-3 and -7 were assessed using the Caspase-Glo® 3/7 assay (Promega, Madison, WI, USA). The assay kit provides a proluminescent caspase-3/7 substrate (DEVD-aminoluciferin) and luciferase in a reagent optimized for caspase-3/7 activity, luciferase activity, and cell lysis. In the presence of caspase 3/7, this substrate is cleaved, and aminoluciferin is released and consumed by luciferase, which generates a luminescent signal proportional to the caspase activity present in the cells. The assay was carried out in a 96-well plate format with the OVCAR3 cells treated with complexes 1, 5, and 9 for 24 h at concentrations below their IC50 according to a previously described method. […] Results (mean ± SD) were expressed as relative luminescent units (RLU).

The test system of data set [10] is OVCAR3 cells. Description: Metal distribution in single cells by nuclear microscopy (PIXE). It counts as cell-based, human. As to conditions: 1 at 45 μM 24 h, 9 at 30 μM 3 h. As to the method: The distribution of copper and gold in treated cells was inspected by nuclear microscopy, making use of the PIXE technique to map and assess elemental contents in single cells. The nuclear microscopy techniques offer several advantages, regarding relatively high spatial resolution and sensitivity for a wide range of elements with physiological roles and those with pharmaceutical interest, in whole cells, while preserving most of their in vivo conditions.
OVCAR3 cells (ca. 1 × 10^6) were prepared for nuclear microscopy experiments by seeding the cells on a 100 nm thick silicon nitride membrane (Silson Ltd., Southam, UK), contained in six-well plates, and incubated overnight as described previously. Cells were incubated with complexes 1 and 9 at concentrations corresponding to the IC50 (45 μM for 24 h and 30 μM for 3 h, respectively). After incubation, the cells were analyzed at the nuclear microscopy facility of the C2TN/IST with a 2.0 MeV proton beam focused down to 3 × 4 µm^2 dimensions. Images of the micro-distributions of Cu and Au in OVCAR3 cells, as well as minor and trace physiological elements (e.g., P, S, K, and Fe), were obtained using the PIXE multielemental technique. Images of whole OVCAR3 cells were taken with 30 × 30 µm^2 scan sizes. Acquisition of data imaging and spectral analysis was performed using OMDAQ 2007 (Oxford Microbeams Ltd., Oxford, UK).

Like-named read-outs stand apart in the source and are kept apart here.

Turning to `[Cl][Cu]` [CuCl, reference compound], the IC50 in the data set with OVCAR3 cells [1] (MTT, 24 h incubation) is over 100 µM. Besides, the “Epred (reduction potential)” value in data set [2] is given as −0.46 Volt.

Take `[Cl][Cu][Cl]` [CuCl2, reference compound]: in the data set with OVCAR3 cells [1] (MTT, 24 h incubation), the IC50 is over 100 µM. In [2], the “E1/2red (reduction potential, footnote d)” value was 0.58 ^d Volt.

With “[CuCl2(OC10H14NC6H5)]·HCl·½H2O [Complex 4]”, the IC50 with V79 fibroblasts was over 100 µM; with A2780 cells, over 100 µM; in the data set with OVCAR3 cells [1] (MTT, 24 h incubation) it was 115 ± 25 µM; with HDF fibroblasts, over 100 µM. Besides, in the data set on OVCAR3 cells [1], the “SI = selectivity index = IC50(HDF)/IC50(OVCAR3)” value was over 1. In data set [2], the “E1/2red (reduction potential, footnote d)” value is listed as 0.47 ^d Volt.

On to “[{CuCl}3{(OC10H14N)2,μ-C6H4-p)}] [Complex 3]”, for which the IC50 was 44.9 ± 10 µM in the data set with V79 fibroblasts; 43.1 ± 9.1 µM in the data set on A2780 cells; 37.5 ± 7.7 µM in the data set with OVCAR3 cells [1] (MTT, 24 h incubation); 48.3 ± 27 µM in the data set with HDF fibroblasts. Further, the “SI = selectivity index = IC50(HDF)/IC50(OVCAR3)” value in the data set on OVCAR3 cells [1] came out at 1.3. Also, the “E1/2red (reduction potential, footnote d)” value in data set [2] is reported as −0.46 ^d Volt.

For the compound [CuCl2((OC10H14N)2C6H4-p)] [Complex 2], the IC50 is over 100 µM in the data set with V79 fibroblasts; 49.5 ± 14 µM in the data set on A2780 cells; 37.6 ± 8.5 µM in the data set on OVCAR3 cells [1] (MTT, 24 h incubation); over 100 µM in the data set on HDF fibroblasts. For the same compound, the “SI = selectivity index = IC50(HDF)/IC50(OVCAR3)” value in the data set on OVCAR3 cells [1] is given as over 3. For the same compound, in data set [2], the “E1/2red (reduction potential, footnote d)” value was 0.48 ^d Volt.

With `CC(=O)[O-].[Ag+]` [Ag(CH3COO), silver acetate, reference compound], the IC50 with OVCAR3 cells [1] (MTT, 24 h incubation) is 3.38 ± 2 µM. Also, the “Epred (reduction potential)” value in [2] is listed as −0.043 Volt.

In the case of `N.N.[Cl][Pt][Cl]` [cisplatin, reference compound], the IC50 is 21 ± 5 µM with A2780 cells and 13 ± 4.7 µM in the data set with OVCAR3 cells [1] (MTT, 24 h incubation). For the same compound, the “interaction with DNA (change of electrophoretic mobility)” value in the data set on ΦX174 supercoiled DNA [3] is “bind to DNA and induce extensive electrophoretic mobility changes in DNA”.

For `O=[N+]([O-])[O-].[Ag+]` [Ag(NO3), silver nitrate, reference compound], the IC50 in the data set with OVCAR3 cells [1] came out at 2.66 ± 1 µM. Further, in [2], the “Epred (reduction potential)” value is 0.18 Volt.

As to “[{CuCl}2{OC10H14N(C6H4NH2)}] [Complex 1]”, the IC50 came to 34.5 ± 9.7 µM in the data set with V79 fibroblasts; 45.6 ± 11 µM in the data set with A2780 cells; 72.4 ± 9.1 µM in the data set on OVCAR3 cells [1] (MTT, 24 h incubation); 116 ± 27 µM with HDF fibroblasts. Besides, the “production of ROS (H2DCF-DA, relative to untreated cells)” value in the data set with OVCAR3 cells [4] was “followed a similar trend”. Also, the “interaction with DNA (change of electrophoretic mobility)” value in the data set with ΦX174 supercoiled DNA [5] was “none of them interacted significantly with DNA”. Also, the “stability in cellular medium (UV/Vis spectra)” value in data set [6] is given as “slightly lower”. Further, the “MDA (lipid peroxide content)” value in the data set on OVCAR3 cells [7] is on record as 290 ± 15 pmoles/10^6 Cells. In the data set with OVCAR3 cells [1], the “SI = selectivity index = IC50(HDF)/IC50(OVCAR3)” value came to 1.6. In addition, the “superoxide ROS levels (NBT reduction)” value in the data set with OVCAR3 cells [8] was “increased the ROS levels in a dose-dependent manner”. Moreover, in data set [9], the caspase-3/7 activation result is “low caspase activation”. Besides, the “Epred (reduction potential)” value in data set [2] is −0.49 Volt. Also, the “cellular distribution of the metal” value in the data set with OVCAR3 cells [10] is listed as “uncharacteristic map of copper distribution”.
